Tests used:
Yeast α-glucosidase = experiment: α-Glucosidase inhibitory assay with pNPG as substrate; assay type: biochemical; conditions: test concentration up to 400 µg/mL in 10% DMSO, triplicate
Protocol: Enzyme inhibition assays were carried out spectrophotometrically using a procedure reported by Li et al.. A 60 μL reaction mixture containing 20 μL of 100 mM phosphate buffer (pH 6.8), 20 μL of 2.5 mM pNPG, and 20 μL of sample (test concentration up to 400 μg/ml for compounds) dissolved in 10% DMSO was added to each well, followed by the addition of 20 μL of α-glucosidase (0.2 U/mL in 10 mM phosphate buffer (pH 6.8)). The plate was incubated at 37 °C for 15 min, and then 80 μL of 0.2 M sodium carbonate solution was added to stop the reaction. Right after that, the absorbance was recorded at 405 nm using a VERSA max microplate reader (Molecular Devices, Sunnyvale, CA, USA). The control contained the same reaction mixture with the same volume of phosphate buffer instead of sample solution. […] The percent inhibition (%) was obtained using the following equation: % Inhibition = (Ac − As)/Ac × 100, where Ac is the absorbance of the control, and As is the absorbance of the sample.

[1] = test system: insulin-resistant HepG2 cells; experiment: 2-NBDG glucose uptake assay in insulin-resistant HepG2 cells; assay type: cell-based, human
Protocol: The HepG2 (human hepatocarcinoma) cell line was purchased from the American Type Culture Collection (HB-8065, Manassas, VA, USA). Cells were maintained in MEM containing 2.0 mM L-glutamine, 0.1 mM non-essential amino acids, 1.0 mM sodium pyruvate, and 10% FBS at 37 °C in a humidified atmosphere with 5% CO2. The medium was changed every 48 h. […] The establishment of an insulin-resistant HepG2 cell model and glucose uptake was performed according to the reported method, with slight modifications. Briefly, HepG2 cells were cultured in 96-well cluster plates. After reaching confluence, the cells were treated with 10^−6 mol/L insulin for 24 h to induce insulin resistance. […] After this incubation, the 2-NBDG uptake in insulin-resistant HepG2 cells was measured. The cells were incubated with 40 μM 2-NBDG for 30 min. To stop the response, cells were washed with ice-cold PBS and the fluorescence intensity of 2-NBDG was measured on a Synergy HT microplate reader (BioTek Instruments, Winooski, VT, USA) at 485 nm excitation and 528 nm emission. Six replicate wells were established and each experiment was repeated three times.

PTP1B = test system: PTP1B; parameters: method as in earlier work; conditions: cited from earlier work
[2] = molecular target: T1, PTP1B (human recombinant) (Homo sapiens, UniProt P18031); experiment: Protein tyrosine phosphatase 1B (PTP1B) inhibition assay with pNPP as substrate; assay type: biochemical; conditions: pNPP substrate, test concentration up to 100 µg/mL in 10% DMSO, triplicate; for IC50: read-out: PTP1B IC50 (Mean ± SEM) (converted)
T1 construct: purchased Biomol International LP (Plymouth Meeting, PA, USA)
T1 sequence (P18031 1-435): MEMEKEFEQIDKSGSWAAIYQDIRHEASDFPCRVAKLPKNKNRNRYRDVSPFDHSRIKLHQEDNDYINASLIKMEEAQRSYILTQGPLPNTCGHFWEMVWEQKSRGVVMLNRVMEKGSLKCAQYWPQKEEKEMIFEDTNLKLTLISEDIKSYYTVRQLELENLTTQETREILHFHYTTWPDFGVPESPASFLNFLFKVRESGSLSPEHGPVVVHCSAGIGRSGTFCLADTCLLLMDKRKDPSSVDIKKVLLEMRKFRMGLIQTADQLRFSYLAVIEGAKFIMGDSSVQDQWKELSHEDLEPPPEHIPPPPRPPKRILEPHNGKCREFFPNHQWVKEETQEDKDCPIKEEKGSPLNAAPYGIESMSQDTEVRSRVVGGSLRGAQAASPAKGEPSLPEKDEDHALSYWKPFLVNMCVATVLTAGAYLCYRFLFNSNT
Protocol: The PTP1B inhibitory activities were evaluated using p-nitrophenyl phosphate as the substrate (pNPP) in a procedure reported by Cui et al.. Each well of a 96-well plate (final volume 100 μL) contained were 40 μL of PTP1B enzyme (0.5 units diluted with a PTP1B reaction buffer containing 50 mM citrate (pH 6.0), 0.1 M NaCl, 1 mM EDTA, and 1 mM dithiotheritol (DTT)), to which sample (test concentration up to 100 μg/mL) dissolved in 10% DMSO was or was not added. The plate was pre-incubated at 37 °C for 10 min, and then 50 μL of 2 mM pNPP in PTP1B reaction buffer was added. Following incubation at 37 °C for 30 min, the reaction was terminated with the addition of 10 M NaOH. The amounts of p-nitrophenyl produced after enzymatic dephosphorylation from pNPP was estimated by measuring the absorbance at 405 nm using microplate spectrophotometer (Molecular Devices). The non-enzymatic hydrolysis of 2 mM pNPP was corrected by measuring the increase in absorbance at 405 nm obtained in the absence of PTP1B enzyme. The percent inhibition (%) was obtained by the following equation: % inhibition = (Ac − As)/Ac × 100, where Ac is the absorbance of the control, and As is the absorbance of the sample.

HepG2 cells = experiment: MTT cytotoxicity assay on HepG2 cells; conditions: human, 24 h
Protocol: Before determining the insulin resistance of alaternin and emodin, the cytotoxicity of alaternin and emodin on HepG2 cells was first measured by the MTT assay. […] To investigate the ability of alaternin and emodin to increase glucose uptake, a 2-[N-(7-nitrobenz-2-oxa-1,3-diazol-4-yl) amino]-2-deoxy-D-glucose (2-NBDG) uptake assay was performed with insulin-resistant HepG2 cells.

α-glucosidase = test system: α-glucosidase; parameters: method as in doi:10.1007/s10600-012-0275-4, PMID 25142941; conditions: from the EtOAc fraction of the methanolic extract of C. obtusifolia; cited from earlier work

α-Glucosidase IC50 (Mean ± SEM) (Yeast α-glucosidase) [µg/mL] | IC50 [2] [µM] | Compound | PTP1B IC50 (Mean ± SEM) [2] [µg/mL] | other results
142.12 ± 0.77 | 124 | COc1c(O)c(C)cc2c1C(=O)c1c(O)cccc1C2=O [Obtusifolin] | – | α-glucosidase inhibitory activity (reported) (α-glucosidase): inactive
2.38 ± 0.77 | 25.6 | COc1cc(O)c2c(c1)C(=O)c1cc(C)cc(O)c1C2=O [Physcion] | – | PTP1B inhibition (previous reports) (PTP1B): inhibited PTP1B; α-glucosidase inhibitory activity (reported) (α-glucosidase): α-glucosidase inhibitors
136.19 ± 0.01 | 20 | COc1cc(O)cc2c1C(=O)c1c(O)cc(C)cc1C2=O [Questin] | – | –
129.23 ± 0.98 | – | Cassiaside | 48.55 ± 1.27 | –
172.59 ± 0.74 | – | Cassitoroside | – | –
37.60 ± 0.79 | – | Toralactone gentiobioside | 81.15 ± 0.15 | –

Second part, the compound before the results:

Compound | α-Glucosidase IC50 (Mean ± SEM) (Yeast α-glucosidase) [µg/mL] | IC50 [2] [µM] | PTP1B IC50 (Mean ± SEM) [2] [µg/mL] | other results
Cc1cc(O)c2c(c1)C(=O)c1cc(O)cc(O)c1C2=O [Emodin, 1,6,8-trihydroxy 3-methyl anthraquinone] | 1.02 ± 0.01 | 13 | – | insulin-stimulated uptake of 2-NBDG ([1]; 3.125, 6.25, and 12.5 μM emodin, 24 h, compared to the control): significantly enhanced; PTP1B inhibition (previous reports) (PTP1B): inhibited PTP1B; concentration without any cytotoxicity (HepG2 cells): up to 12.5 µM
COc1c(O[C@@H]2O[C@H](CO)[C@@H](O)[C@H](O)[C@H]2O)cc2c(c1O)C(=O)c1c(cc(C)c(O)c1OC)C2=O [Gluco-aurantio obtusin] | 142.19 ± 1.22 | – | 31.30 ± 0.97 | –
COc1c(O[C@@H]2O[C@H](CO)[C@@H](O)[C@H](O)[C@H]2O)c(C)cc2c1C(=O)c1c(O)cccc1C2=O [Gluco-obtusifolin] | 23.77 ± 0.72 | – | 53.35 ± 0.44 | –
COc1cc2c(c(O)c1OC)C(=O)c1c(cc(C)c(O)c1OC)C2=O [Obtusin] | 20.92 ± 0.41 | – | 6.44 ± 0.22 | –
CN(C)C(=N)N=C(N)N [metformin, reference compound] | – | – | – | insulin-stimulated glucose uptake ([1]; metformin 10 μM, positive control): significantly increased

Reference: paper PMC6155831, “Promising Inhibitory Effects of Anthraquinones, Naphthopyrone, and Naphthalene Glycosides, from Cassia obtusifolia on α-Glucosidase and Human Protein Tyrosine Phosphatases 1B” (Molecules : A Journal of Synthetic Chemistry and Natural …, 2016)
